SMILES strings stand for the structures. “Also recorded” adds a separate entry of the source. Where a name gives a salt, the structure may show the parent alone. Read-outs that look alike come from different tables or passages of the source.

Consider eight compounds from US7479498B2, “Treatments for viral infections” (priority 1999, dated 2009).

The test system of data set [1] is P. vivax. Particulars: in vivo; cited from earlier work.
The conditions of data set [2]: cited from earlier work; for time to peak (maximum) plasma concentration: oral; for plasma half-life: after oral primaquine.
The test system of data set [3] is P. falciparum. To be noted: cited from earlier work.
For data set [4] the following is noted: cited from earlier work.
Data set [5] relates to HIV. The format is cell-based. To be noted: standardized extract containing 1-10 μg/ml quercetin.
Excerpt: The in vitro effect of calcium channel blockers on HIV infection both in HIV adapted cell lines (HUT/H9) as well as acutely infected peripheral blood lymphocytes were studied.
Data set [6] concerns GSH production. Particulars: cited from earlier work.

Regarding `CCN(CC)CCCC(C)Nc1ccnc2cc(Cl)ccc12` (centres unmarked) [Chloroquine], the “therapeutically effective plasma concentration” value in data set [1] is roughly 15 µg/L. Also, in data set [2] (in vivo), the “apparent volume of distribution” value is “about 13,000 L”, the “half-life (elimination / urinary excretion)” value was 72 to 120 h and the plasma protein binding is reported as 50-65%. In data set [2], the “time to peak (maximum) plasma concentration” value (“time to peak” below) is reported as “about 3 hours”. The “therapeutically effective plasma concentration” value in data set [3] (sensitive P. falciparum) is listed as “approximately 30 μg/L”.
With `OC(c1cc(C(F)(F)F)nc2c(C(F)(F)F)cccc12)C1CCCCN1` (centres unmarked) [Mefloquine], the “half-life (elimination / urinary excretion)” value in data set [2] (in vivo) was 312 to 792 h. Besides, in data set [3] (in vivo), the “plasma level necessary for chemo-suppression” value was 200 to 300 ng/mL.
Take `O=C1NC(=O)C(c2ccccc2)(c2ccccc2)N1` [Phenytoin sodium, monosodium salt of 5,5-diphenyl hydantoinate]: the “solubility in water / aqueous mixtures” value in data set [4] is recorded as “readily soluble in water; also recorded: highly water-soluble”.
As for `COc1cc(NC(C)CCCN)c2ncccc2c1` (centres unmarked) [Primaquine], in data set [2], the plasma half-life was 3 to 8 h and the “time to peak” value is 1 to 2 h. Besides, the peak serum concentration in data set [2] (oral primaquine) was 50 to 66 ng/mL.
Turning to `C=C[C@H]1C[N@@]2CC[C@H]1C[C@H]2[C@H](O)c1ccnc2ccc(OC)cc12` [Quinine], the “mean plasma concentration effective to eliminate asexual parasites” value in data set [1] was “over 5 μg/mL”. Besides, in data set [2] (in vivo), the “cerebrospinal fluid concentration as share of plasma level” value is on record as “about 7%”, the “plasma concentration accompanied by adverse reactions of cinchonism” value is “over 7 μg/mL”, the “red blood cell level as share of plasma level” value is listed as “about 20%” and the “share of drug metabolized in the liver” value is reported as “Approximately 80%”. Besides, in data set [2], the “time to peak” value is 1 to 3 h. Besides, in data set [2] (standard oral doses, normal or mild infection), the plasma level result is on record as “about 7 μg/mL”.
In the case of `COc1cc(NC(C)CCC(=O)O)c2ncccc2c1` (centres unmarked) [carboxyprimaquine], the peak serum concentration in data set [2] (after 14 daily doses of primaquine) was 432 to 1240 ng/mL. The plasma half-life in data set [2] was 22 to 30 h. Also, in data set [2] (in vivo), the “plasma concentration relative to parent compound” value is on record as “more than ten times greater”.
On to `O=C1NC(=O)C(c2ccccc2)(c2ccccc2)N1` [phenytoin, 5,5-diphenyl-2,4-imidazolidinedione], for which, in data set [4], the “solubility in water / aqueous mixtures” value is “poorly soluble in aqueous mixtures; also recorded: water insoluble”.
Turning to `O=c1c(O)c(-c2ccc(O)c(O)c2)oc2cc(O)cc(O)c12` [quercetin, 2-(3,4-Dihydroxyphenyl)-3,5,7-trihydroxy-4H-1-benzopyran-4-one], the “reduction of HIV activity” value in data set [5] was 5-20%. In addition, in data set [2] (in vivo), the “absorption in the jejunum” value is recorded as 66%. For the same compound, the “increase of GSH production” value in data set [6] was 50%.
